Measurements reported in paper PMC8342417, “The structure of an archaeal oligosaccharyltransferase provides insight into the strict exclusion of proline from the N-glycosylation sequon” (Communications Biology, 2021).

Target: T1, AfAglB (AglB-L, A. fulgidus oligosaccharyltransferase) (Archaeoglobus fulgidus, UniProt O29867, G617C)
T1 construct: gene aglB3; full length 868 residues; E. coli C43(DE3); C-terminal His10 cut by thrombin leaving ELALVPR; single-subunit membrane protein in DDM, then LCP
Test: X-ray crystal structure (LCP), […] Å
Assay type: binding
Details: ternary complex with disulfide-tethered peptide TAMRA-APY(Dab)VTASCR and Mn2+; pH 6.0; LLO donor site; from hydrolysis of native LLO mixture (C55 and C60) during crystallization, modelled as C60

T1 sequence (O29867 whole entry G617C): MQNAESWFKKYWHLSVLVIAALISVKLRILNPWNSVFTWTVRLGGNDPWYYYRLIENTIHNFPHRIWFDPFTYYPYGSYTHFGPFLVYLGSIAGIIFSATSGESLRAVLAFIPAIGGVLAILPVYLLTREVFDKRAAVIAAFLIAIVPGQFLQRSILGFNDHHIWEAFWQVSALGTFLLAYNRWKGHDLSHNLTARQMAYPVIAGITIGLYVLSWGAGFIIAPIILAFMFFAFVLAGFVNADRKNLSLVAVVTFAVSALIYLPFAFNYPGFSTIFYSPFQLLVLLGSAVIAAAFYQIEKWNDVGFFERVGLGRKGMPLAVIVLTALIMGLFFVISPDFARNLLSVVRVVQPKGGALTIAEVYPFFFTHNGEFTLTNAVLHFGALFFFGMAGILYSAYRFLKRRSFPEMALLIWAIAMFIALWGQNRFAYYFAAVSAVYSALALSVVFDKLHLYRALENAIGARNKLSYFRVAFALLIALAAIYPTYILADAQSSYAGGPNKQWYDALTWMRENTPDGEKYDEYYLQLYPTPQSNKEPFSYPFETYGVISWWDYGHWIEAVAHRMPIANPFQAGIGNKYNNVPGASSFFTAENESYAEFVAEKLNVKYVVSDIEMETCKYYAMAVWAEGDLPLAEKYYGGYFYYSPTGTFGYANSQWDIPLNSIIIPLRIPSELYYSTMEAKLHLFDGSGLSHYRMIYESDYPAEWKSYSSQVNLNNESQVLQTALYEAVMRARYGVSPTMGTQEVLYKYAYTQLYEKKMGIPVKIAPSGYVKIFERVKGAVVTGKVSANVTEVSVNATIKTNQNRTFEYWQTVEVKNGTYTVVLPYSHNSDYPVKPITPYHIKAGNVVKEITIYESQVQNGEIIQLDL

C/C(=C/CC/C(C)=C\CC/C(C)=C\CC/C(C)=C/CC/C(C)=C\CC/C(C)=C\CC[C@H](C)CCOP(=O)(O)O)CC/C=C(/C)CC/C=C(/C)CCCC(C)CCCC(C)CCCC(C)C (stereo partly shown) [dolichol-phosphate]
X-ray crystal structure (LCP), 2.7 Å: LLO binding site was occupied by a dolichol-phosphate, instead of an intact LLO
